Laboratory results taken from patent publication US10793531B2, “Triazole derivatives and their use as PDE4 activators” (MIRONID LIMITED, priority 2015, dated 2020).

Legend:
full-length human PDE4D5 = target: T1, full-length human PDE4D5 (Homo sapiens, UniProt Q08499); assay: PDE4 radio-assay, PDE4D5 long form activation (Experiment 1); assay type: biochemical; conditions: n ≥ 2, read-out: PDE4D5 activity (mean % increase in counts over basal activity without added compound); for activation at 50 µM: 50 μM compound; for activation at 1 µM: 1 μM compound; for activation at 3 µM: 3 μM compound; for activation at 10 µM: 10 μM compound; for activation at 30 µM: 30 μM compound
T1 construct: stably expressed the full-length human PDE4D5, PDE4A4 and PDE4B1 long isoforms; made in house; cytosol fraction of the lysate
T1 sequence (Q08499 1-745 isoform Q08499-6): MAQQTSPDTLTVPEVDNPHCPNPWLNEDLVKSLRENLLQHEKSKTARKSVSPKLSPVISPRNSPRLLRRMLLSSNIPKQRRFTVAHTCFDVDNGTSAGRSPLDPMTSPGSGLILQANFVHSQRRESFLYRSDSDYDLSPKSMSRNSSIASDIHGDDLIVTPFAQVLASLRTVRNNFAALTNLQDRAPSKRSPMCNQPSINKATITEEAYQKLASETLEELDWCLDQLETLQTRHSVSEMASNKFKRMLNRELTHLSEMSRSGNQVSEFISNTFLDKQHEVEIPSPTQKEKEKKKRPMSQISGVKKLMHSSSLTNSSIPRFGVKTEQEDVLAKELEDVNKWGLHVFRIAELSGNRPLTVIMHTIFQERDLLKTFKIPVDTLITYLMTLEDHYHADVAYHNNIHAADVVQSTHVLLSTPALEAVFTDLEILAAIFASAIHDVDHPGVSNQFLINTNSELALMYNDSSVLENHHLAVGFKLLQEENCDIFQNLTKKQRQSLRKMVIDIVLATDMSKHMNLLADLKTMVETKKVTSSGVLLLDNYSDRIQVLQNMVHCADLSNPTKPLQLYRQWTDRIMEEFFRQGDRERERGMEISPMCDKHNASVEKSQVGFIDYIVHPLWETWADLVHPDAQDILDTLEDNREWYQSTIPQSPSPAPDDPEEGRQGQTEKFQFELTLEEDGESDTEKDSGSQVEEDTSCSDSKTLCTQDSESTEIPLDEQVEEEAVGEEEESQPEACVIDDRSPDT
Experimental: (§1) One suitable method of detecting whether or not a compound is capable of serving as an activator of a PDE4 long form is using a two-step radio-assay procedure described in Experiment 1. In summary, the method involves incubating a PDE4 long form with a test small molecule activator, together with [^3H]-labelled cAMP to assess alterations in the breakdown of cAMP to the 5′-adenosine monophosphate (5′-AMP) product. A sample of the reaction mixture from such an incubation is subsequently treated with snake venom 5′-nucleotidase to allow conversion of the nucleotide [^3H]-labelled 5′-AMP to the uncharged nucleoside [^3H]-labelled adenosine, which can be separated and quantified to assess PDE4 activity and the effect of the test compound (Thompson, W. J. and Appleman, M. M. Biochemistry 10: 311-316, 1971, with some modifications as described in: Marchmont, R. J. and Houslay, M. D. Biochem J. 187: 381-92, 1980).
(§2) HEK 293 cells were transfected with pDEST™ PDE4 expression vectors using Lipofectamine LTX/Plus reagent (Invitrogen) as outlined by the manufacturer and clonal isolates expanded to obtain cell lines that stably expressed the full-length human PDE4D5, PDE4A4 and PDE4B1 long isoforms and the full length human PDE4B2 short isoform. These were called the HEK-PDE4D5, HEK-PDE4A4, HEK-PDE4B1 and HEK-PDE4B2 cell lines, respectively.
(§3) HEK-PDE4D5 cells were seeded out in 100 mm plates and incubated at 37° C. in an atmosphere of 5% CO2, 95% air. Cell lysates were prepared using KHEM buffer [50 mM KCl, 10 mM EGTA, 50 mM HEPES (pH 7.2), 1.92 mM MgCl2].
(§4) To prepare the cell lysates, the 100 mm plates containing the cells were placed on ice and washed with ice-cold PBS (phosphate buffered saline, pH 7.4). KHEM buffer (500 μl) was added to the cells. Cells were then scraped off the plate and triturated using a needle (BD Microlance™ 0.8, 40 mm). The lysed cells were then centrifuged at 2000 rpm for 10 minutes to remove cell debris and the supernatant (cell lysate containing recombinant PDE4D5) was transferred to a fresh tube and kept on ice.
(§5) The cell lysate containing recombinant PDE4D5 was transferred into a centrifuge tube and placed into an ultracentrifuge (BECKMAN COULTER) and spun at high speed (100,000 g) for 30 minutes at 4° C. The cytosol fraction was then collected and its protein amount determined using a BCA protein assay.
PDE assays were performed using a final concentration of 10 mM Tris/5 mM MgCl2 and 1 μM [3H]-cAMP (Perkin Elmer) plus PDE4D5 cell lysate cytosol fraction, containing over-expressed PDE4D5, with and without test compound. Incubations were performed at 30° C. for 5 minutes. The samples were then placed in a boiling water bath for 2 minutes to denature the PDE enzyme, and returned to ice. Samples were allowed to cool for 1.0 min after which snake venom 5′-nucleotidase (25 μl, 1 mg/ml; Sigma) was added. The tubes were vortexed and incubated in a water bath at 30° C. for 10 minutes, to attain conversion of [3H]-5′-AMP to [3H]-adenosine, and then placed on ice. Dowex ion exchange resin (Sigma) prepared as a 1:1 Dowex:water stock was thoroughly re-suspended and diluted 2:1 with ethanol. The resulting Dowex suspension (0.4 ml) was added to each tube. Tubes were vortexed to mix and then incubated on ice for at least 15 minutes before a final vortex. The Dowex resin was pelleted by centrifugation at 13,000 g at 4° C. for 3 minutes and 150 μl of the supernatant was removed to an Eppendorf tube containing 1 ml of ScintiSafe3 scintillation fluid (Fisher). Tubes were vortexed thoroughly to mix and the recovered [3H]-adenosine was quantified by measuring counts over 1 minute in a scintillation counter.

[1] = target: T2, full length human PDE4B2 short isoform (Homo sapiens, UniProt Q07343); assay: PDE4 radio-assay, PDE4B2 short form (Experiment 1); assay type: biochemical; conditions: method of Experiment 1; FIG. 4
T2 construct: the full length human PDE4B2 short isoform; made in house; cytosol fraction of the lysate
T2 sequence (Q07343 1-564 isoform Q07343-2): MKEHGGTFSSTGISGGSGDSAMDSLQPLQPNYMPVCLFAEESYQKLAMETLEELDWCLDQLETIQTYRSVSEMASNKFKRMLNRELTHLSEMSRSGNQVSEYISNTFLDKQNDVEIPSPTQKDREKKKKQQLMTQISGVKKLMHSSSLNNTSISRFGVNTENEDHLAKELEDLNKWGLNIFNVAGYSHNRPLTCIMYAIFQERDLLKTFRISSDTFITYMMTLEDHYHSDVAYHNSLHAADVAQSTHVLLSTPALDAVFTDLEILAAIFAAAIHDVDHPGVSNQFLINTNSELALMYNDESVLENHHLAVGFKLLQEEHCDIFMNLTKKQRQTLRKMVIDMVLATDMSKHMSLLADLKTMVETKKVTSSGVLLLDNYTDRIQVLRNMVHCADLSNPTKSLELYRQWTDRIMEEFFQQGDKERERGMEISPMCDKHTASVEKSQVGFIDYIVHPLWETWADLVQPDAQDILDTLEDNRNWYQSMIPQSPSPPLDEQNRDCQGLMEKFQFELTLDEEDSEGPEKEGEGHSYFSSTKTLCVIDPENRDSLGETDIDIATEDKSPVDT
Experimental: as §1, §2, §3, §4, §5
PDE assays were performed using a final concentration of 10 mM Tris/5 mM MgCl2 and 1 μM [3H]-cAMP (Perkin Elmer) plus PDE4D5 cell lysate cytosol fraction, containing over-expressed PDE4D5, with and without test compound. Incubations were performed at 30° C. for 5 minutes. […] Tubes were vortexed thoroughly to mix and the recovered [3H]-adenosine was quantified by measuring counts over 1 minute in a scintillation counter.

MDCK cells = assay: Reduction of intracellular cAMP levels in forskolin stimulated MDCK cells (Experiment 2); assay type: cell-based, canine; conditions: 10 μM compound for 10 min prior to forskolin (10 μM) for 2 min; FIG. 6
Experimental: HEK 293 and MDCK cells (Public Health England, Cell Culture Collections) were maintained in DMEM supplemented with 10% (v/v) fetal bovine serum (Seralab), 2 mM L-glutamine, 1,000 U penicillin and 1,000 μg streptomycin (Life Technologies); termed complete media. Clonal HEK 293 cell lines were maintained in complete media supplemented with 0.6 mg/mL G418 (Enzo Life Sciences).
HEK 293 or MDCK cells were seeded at 100,000 cells per well, and left to adhere overnight. The cells were then treated with the compound indicated (10 μM) for 10 minutes, prior to stimulation with forskolin (10 μM, Sigma) for 2 minutes. Media was aspirated, and hydrochloric acid (0.1M) was added to lyse the cells. The cAMP assay (Enzo Life Sciences) was performed according to the manufacturers instructions.

Structure (SMILES) | activation at 50 µM (full-length human PDE4D5) | activation at 1 µM (full-length human PDE4D5) | activation at 3 µM (full-length human PDE4D5) | activation at 10 µM (full-length human PDE4D5) | activation at 30 µM (full-length human PDE4D5) | activation of PDE4B2, a short form of PDE4 (in words) [1] | intracellular cAMP levels in MDCK cells (in words) (MDCK cells)
COCc1nc(-c2ccc(OC(F)(F)F)cc2)nn1CC(=O)NCc1cccc(F)c1 [Example D, N-(3-Fluorobenzyl)-2-{3-[4-(trifluoromethoxy)phenyl]-5-methoxymethyl-1H-1,2,4-triazol-1-yl}acetamide] | 196% | 52.6% | 30.6% | 51.6% | 126% | lack of activation | reduction in intracellular cAMP levels
COCc1nc(-c2ccc(Cl)cc2)nn1CC(=O)NCc1ccccc1 [Example B, N-Benzyl-2-[3-(4-chlorophenyl)-5-methoxymethyl-1H-1,2,4-triazol-1-yl]acetamide] | 114% | 7.2% | 0.4% | 21.9% | 64.6% | lack of activation | 
Cc1nc(-c2ccc(Cl)cc2)nn1CC(=O)NCc1ccccc1 [Example C, N-Benzyl-2-[3-(4-chlorophenyl)-5-methyl-1H-1,2,4-triazol-1-yl]acetamide] | 119% |  |  |  |  |  | reduction in intracellular cAMP levels
CCc1nc(-c2ccc(Cl)c(F)c2)nn1CC(=O)NCc1cccc(Cl)c1 [Example E, N-(3-Chlorobenzyl)-2-[3-(4-chloro-3-fluorophenyl)-5-ethyl-1H-1,2,4-triazol-1-yl]acetamide] | 71.1% |  |  |  |  |  | 

More lines, main results first:

activation at 50 µM (full-length human PDE4D5) | activation at 1 µM (full-length human PDE4D5) | activation at 3 µM (full-length human PDE4D5) | activation at 10 µM (full-length human PDE4D5) | activation at 30 µM (full-length human PDE4D5) | activation of PDE4B2, a short form of PDE4 (in words) [1] | Structure (SMILES) | intracellular cAMP levels in MDCK cells (in words) (MDCK cells)
136% |  |  |  |  |  | CCc1nc(-c2ccc(Cl)c(F)c2)nn1CC(=O)NCc1cccc(OC)c1 [Example H, N-(3-Methoxybenzyl)-2-[3-(4-chloro-3-fluorophenyl)-5-ethyl-1H-1,2,4-triazol-1-yl]acetamide] | 
82.2% |  |  |  |  |  | CCc1nc(-c2ccc(Cl)c(F)c2)nn1CC(=O)NCc1ccccc1F [Example J, N-(2-Fluorobenzyl)-2-[3-(4-chloro-3-fluorophenyl)-5-ethyl-1H-1,2,4-triazol-1-yl]acetamide] | 
92.1% |  |  |  |  |  | CCc1nc(-c2ccc(Cl)c(F)c2)nn1CC(=O)NCc1cccc(OC(F)(F)F)c1 [Example I, N-[3-(Trifluoromethoxy)benzyl]-2-[3-(4-chloro-3-fluorophenyl)-5-ethyl-1H-1,2,4-triazol-1-yl]acetamide] | 
251% | 26% | 42.4% | 79.8% | 214% | lack of activation | CCc1nc(-c2ccc(Cl)c(F)c2)nn1CC(=O)NCc1ccc(OC)c(OC)c1 [Example L, N-(3,4-Dimethoxybenzyl)-2-[3-(4-chloro-3-fluorophenyl)-5-ethyl-1H-1,2,4-triazol-1-yl]acetamide] | 
80.5% |  |  |  |  |  | CCc1nc(-c2ccc(Cl)c(F)c2)nn1CC(=O)NCc1ccc(F)cc1 [Example K, N-(4-Fluorobenzyl)-2-[3-(4-chloro-3-fluorophenyl)-5-ethyl-1H-1,2,4-triazol-1-yl]acetamide] | 
107% |  |  |  |  |  | CCc1nc(-c2ccc(Cl)c(F)c2)nn1CC(=O)NCc1cccc(C#N)c1 [Example F, N-(3-Cyanobenzyl)-2-[3-(4-chloro-3-fluorophenyl)-5-ethyl-1H-1,2,4-triazol-1-yl]acetamide] | 
171% |  |  |  |  |  | CCc1nc(-c2ccc(Cl)c(F)c2)nn1CC(=O)NCc1cccc(C(F)(F)F)c1 [Example G, N-[3-(Trifluoromethyl)benzyl]-2-[3-(4-chloro-3-fluorophenyl)-5-ethyl-1H-1,2,4-triazol-1-yl]acetamide] | 
